In general, melting point refers to the temperature, or range, at which the solid turns liquid.

As to `C=C1C2CCC3(O)C4(C)CCCC(C)(C(=O)OC5OC(CO)C(O)C(O)C5O)C4CCC3(C2)C1O` (stereo not drawn), the melting point lay in the range of 218 to 220 °C.

`Clc1ccc(-c2cn3c(n2)sc2ccccc23)cc1` had a melting point of 158 to 160 °C.

Consider `O=C(N=NC(=O)N1CCCCC1)N1CCCCC1`, for which the melting point stood at 135 °C.

In turn, `Clc1nccc2occc12` came in with a melting point of 41 to 42 °C.

As for `FC(F)C(F)C(F)(F)F` (stereo not drawn), the melting point is -156 °C.

Take `Cc1cc(C(F)(F)F)n2nc(N)c(/N=N/c3ccc4ccccc4c3)c2n1`: the melting point turned out to be 246 °C.

Take `CC1(C)CC(=O)C2=C(C1)Nc1c(ccc3ccccc13)C2c1ccc(O)cc1` (stereo not drawn): the melting point is 312 °C.

`Cc1ccc2sc(C=O)cc2c1` showed a melting point of 98 to 99 °C.

As for `O=C(Nc1ccccc1)C(c1ccccc1)c1ccccc1`, the melting point was determined as 177 °C.

Regarding `Nc1ncnc2c1ccn2C1OC(CO)C(O)C1O` (stereo not drawn), the melting point worked out at 247 °C.

Take `CN(C)c1ccc(-c2ccc(N(C)C)cc2)cc1`: the melting point turned out to be 194 °C.

As for `O=Cc1c(Sc2ccc(Cl)cc2)nc2sccn12`, the melting point is 139 to 141 °C.

Regarding `C=CF`, the melting point is -160 °C.

The compound `O=C(O)/C=C/c1ccc(I)o1` registered a melting point of 145 °C.

Compound `O=C(NN=Cc1ccc([N+](=O)[O-])o1)c1ccc(O)cc1` gave a melting point of 298 °C.

Turning to `O=c1[nH]c2scc(-c3ccccc3)c2c(=O)n1-c1cccc(Cl)c1`, the melting point is 269 to 270 °C.

Compound `COc1ccc(C=Cc2cc(O)cc(OC3OC(CO)C(O)C(O)C3O)c2)cc1O` (stereo not drawn) had a melting point of 236 °C.

Regarding `CC(=O)c1cc2cc(Cl)ccc2o1`, the melting point is 97 to 98 °C.

As for `NCc1ccc(-c2ccccc2)nc1`, the melting point is 38 to 40 °C.

On to `Cc1cc(S(=O)(=O)c2ccccc2)ccc1NS(=O)(=O)C(F)(F)F`, for which the melting point stood at 143 °C.

`O=C1c2ccccc2C(=O)C1(O)C1(O)C(=O)c2ccccc2C1=O` displayed a melting point of 252 °C.

`COc1ccc(NC(=S)c2cc(C(C)(C)C)c(O)c(C(C)(C)C)c2)cc1` displayed a melting point of 128 to 129 °C.

Consider `CC(=O)OCc1ccc(C=O)o1`, for which the melting point was in the range of 52 to 56 °C.

Consider `O=C(NC(Cc1ccccc1)C(=O)CCl)OCc1ccccc1` (stereo not drawn), for which the melting point fell in the range of 107 to 108 °C.

Consider `O=C(Cl)c1ccc2c(c1)C(=O)OC2=O`, for which the melting point turned out to be 68 °C.

Compound `COC(=O)CCC(C)C1CCC2C3C=CC4CCCCC4(C)C3CCC12C` (stereo not drawn) displayed a melting point of 60 °C.

For `O=c1c(Cl)c(Cl)cnn1Cc1ccccc1F`, the melting point is 110 to 112 °C.

Turning to `O=CC(C=O)c1ccc(Cl)cc1[N+](=O)[O-]`, the melting point lay within 137 to 143 °C.

In the case of `CN1CCC(CN2c3ccccc3Sc3ccccc32)C1` (stereo not drawn), the melting point was 87 °C.

For `O=C1c2cccc(O)c2C(=O)c2c(O)cccc21`, the melting point is 193 °C.

On to `N#CCCP(CCC#N)CCC#N`, for which the melting point was found to be 98 °C.

Consider `O=c1[nH]ccc(=S)[nH]1`, for which the melting point came to 295 °C.

As for `CC(=O)Oc1ccc2c3c1OC1C(OC(C)=O)C=CC4C(C2)N(C)CCC341` (stereo not drawn), the melting point was 173 °C.

On to `CC(=CC(=O)O)C(F)(F)F`, for which the melting point fell in the range of 28 to 30 °C.

Take `CSc1ccc(N)cc1C(F)(F)F`: the melting point was 57 °C.

For the compound `O=C(O)c1ccc2ncccc2c1`, the melting point lay in the range of 293 to 294 °C.

`Cc1ccc2ccc(C)cc2c1` returned a melting point of 97 °C.

As to `COc1cccc(C(CCC(=O)O)C(C)(C)C(=O)O)c1` (stereo not drawn), the melting point is 137 °C.

`Cc1ccc2cc(F)ccc2n1` had a melting point of 54 °C.

`Nc1ncnc2c1ncn2C1CCC(CO)O1` (stereo not drawn): the melting point amounted to 185 °C.

`Cc1nc(-c2cc(C(=O)O)no2)cs1` registered a melting point of 166 to 167 °C.

Compound `CCOC(=O)N/C=C1/C(=O)C2(C)CCC1C2(C)C` (stereo not drawn) had a melting point of 162 °C.

Consider `Nc1nn2c(C(F)(F)F)cc(=O)[nH]c2c1/N=N/c1c(Cl)cc(Cl)cc1Cl`, for which the melting point stood at 275 °C.

On to `CCCCCCCCCCCCC#CC#CCO`, for which the melting point fell in the range of 57 to 59 °C.

For the compound `Cc1ccccc1C1=Cc2ccccc2C2(OCCO2)O1`, the melting point came to 75 °C.

Compound `CC12CCCCC1CCC1C2CCC2(C)C1CCC2(O)C#Cc1ccccc1` (stereo not drawn) gave a melting point of 108 to 111 °C.

For the compound `Fc1c(F)c(F)c(P(c2c(F)c(F)c(F)c(F)c2F)c2c(F)c(F)c(F)c(F)c2F)c(F)c1F`, the melting point was found to be 117 °C.

In turn, `O=Cc1cc([N+](=O)[O-])ccc1N1CCOCC1` came in with a melting point of 115 °C.

In turn, `Nc1cc(O)nc(N)n1` had a melting point of 285 to 286 °C.

Compound `Cc1cc(C)c(Br)c(C)c1N` came in with a melting point of 36 °C.

On to `CC(C)(C)OC(=O)N[C@]1(C(=O)O)C[C@@H]1c1ccccc1`, for which the melting point is 180 to 182 °C.

In the case of `CC(C)(C)P(c1ccc2ccccc2c1-c1cccc2ccccc12)C(C)(C)C`, the melting point lay in the range of 147 to 149 °C.

Consider `Cc1ccc(C(N)=S)cc1`, for which the melting point lay within 163 to 168 °C.

The compound `COC(=O)NCCc1ccccc1NC(C)=O` displayed a melting point of 107 °C.

Regarding `Cn1ncc(Br)c1NC(=O)CCl`, the melting point was 137 to 139 °C.

`O=C1CC(=O)NCCNCCNCCNC(=O)CC(=O)NCCNCCNCCN1` had a melting point of 199 to 202 °C.

In turn, `O=C(O)c1cccnc1Sc1ccccc1` gave a melting point of 165 to 167 °C.

`O=C(O)c1ccc(Cl)cc1[N+](=O)[O-]` gave a melting point of 144 °C.

In turn, `NNC(=O)c1ccc(C(F)(F)F)cc1` returned a melting point of 121 °C.

As for `CNC(=O)CCl`, the melting point turned out to be 46 °C.

`C=CC(CO)N1C(=O)c2ccccc2C1=O` (stereo not drawn) came in with a melting point of 62.2 °C.

The compound `COc1cc(N=Nc2c(Br)cc([N+](=O)[O-])cc2[N+](=O)[O-])c(NC(C)=O)c(N(CCOC(C)=O)CCOC(C)=O)c1` gave a melting point of 132 °C.

On to `Cc1cc(C(=O)O)ccc1Br`, for which the melting point was found to be 216 °C.

The compound `COc1ccc2c(c1OC)C(=O)OC2C1c2c(cc3c(c2OC)OCO3)CCN1C` (stereo not drawn) showed a melting point of 176 °C.

Consider `CCCOc1ccc(C(=O)O)cc1`, for which the melting point was 145 °C.

With `Nc1ccc(CCC(=O)O)cc1`, the melting point was 134 °C.

Regarding `NC1CCCCCCC1`, the melting point was -48 °C.

As for `CN(C)C(=O)Nc1ccc(SC(F)(F)Cl)c(Cl)c1`, the melting point was 114 °C.

As for `CCOP(=S)(OCC)Oc1cnccn1`, the melting point is -1.7 °C.

Take `CC1C(=O)C23C4CC5C(C)(CO)CCCC56COC(CC1C2OC(C)(C)O4)C63` (stereo not drawn): the melting point amounted to 220 °C.

`Nc1ccc(I)cn1` displayed a melting point of 128 °C.

As for `O=C(Oc1ccc(Cl)cc1Cl)c1ccc(C(=O)Oc2ccc(Cl)cc2Cl)cc1`, the melting point was 217 °C.

For `Cc1nc(-c2ccccc2)cs1`, the melting point was 54 °C.

`CC(C)=CCCC(C)C1CCC2C3CC=C4CC(O)CCC4(C)C3CCC12C` (stereo not drawn): the melting point worked out at 122 °C.

Consider `Brc1cccc2ncccc12`, for which the melting point was determined as 46 °C.

On to `OCCNC1CCCCC1`, for which the melting point amounted to 36 °C.

The compound `Oc1ccc2ccccc2c1CN1CCCCC1` showed a melting point of 93 to 94 °C.

In the case of `COc1ccc(/N=N/c2c(N)nn3c(-c4ccccc4)cc(=O)[nH]c23)cc1`, the melting point stood at 278 °C.

As to `CC(C)OC(=O)C(C)N(C(=O)c1ccccc1)c1ccc(F)c(Cl)c1` (stereo not drawn), the melting point is 84 °C.

Compound `Cc1cc(O)c(C)cc1N` had a melting point of 242 °C.

The compound `Clc1ccc(OCc2ccccc2)cc1` showed a melting point of 70 to 72 °C.

Compound `O=Cc1csc2ccc(Br)cc12` returned a melting point of 106 to 107 °C.

The compound `O=C1OC(C(Cl)(Cl)Cl)Cc2ccccc21` (stereo not drawn) yielded a melting point of 119 °C.

Turning to `COc1ccc2c(c1)/C(=N/Nc1ccc([N+](=O)[O-])cc1[N+](=O)[O-])C2`, the melting point was in the range of 220 to 222 °C.

In turn, `NS(=O)(=O)c1ccc(S(=O)(=O)CCO)c(F)c1` returned a melting point of 165 °C.

`CNC(=O)COc1ccccc1OCC(O)CNC(C)(C)C` (stereo not drawn) displayed a melting point of 96.5 °C.

Turning to `N=C(N)N(c1ccccc1)c1ccccc1`, the melting point is 150 °C.

`OCC(F)(F)C(F)(F)C(F)(F)C(F)(F)C(F)(F)C(F)(F)CO`: the melting point was 80 to 83 °C.

Regarding `CC(=O)OC1CCC2C3CCC4=CC(O)CCC4(C)C3CCC12C` (stereo not drawn), the melting point was 96 °C.

Regarding `Cc1ccc(C#N)c(=O)[nH]1`, the melting point fell in the range of 293 to 295 °C.

In turn, `CCCCCCCCCCCCCCCc1cccc(O)c1` registered a melting point of 53.5 °C.

On to `CC1c2ccccc2-c2ccccc21`, for which the melting point worked out at 46.5 °C.

For the compound `O=c1onc2cnc3ccccc3n12`, the melting point was in the range of 160 to 170 °C.

Compound `O=C(CBr)c1cccc([N+](=O)[O-])c1` displayed a melting point of 94 °C.

`O=C=Nc1ccc(F)cc1[N+](=O)[O-]` returned a melting point of 50 to 55 °C.

As for `CCCc1c(C(=O)O)cnn1-c1ccccc1`, the melting point lay within 107 to 110 °C.

In the case of `CCOC(=O)C(=O)c1cc(C(=O)C(=O)OCC)c([N+](=O)[O-])cc1[N+](=O)[O-]`, the melting point was 118 °C.

Take `Nc1nnc(SCC(=O)Nc2ccc3c(c2)OCO3)s1`: the melting point was in the range of 196 to 198 °C.

`CSc1nn(-c2ccccc2)cc1C(N)=S` came in with a melting point of 130 to 133 °C.

Take `N#CC1(C#N)C2COC(C3=C2CCCC3)C1(C#N)C#N` (stereo not drawn): the melting point worked out at 173 °C.

On to `Nc1cccc(F)c1`, for which the melting point is -5 °C.

`Cc1c(C2(c3cc(C(C)C)c(O)c(CN(CC(=O)O)CC(=O)O)c3C)OC(=O)c3ccccc32)cc(C(C)C)c(O)c1CN(CC(=O)O)CC(=O)O` yielded a melting point of 191 °C.

Compound `COc1cccc(CNC(N)=S)c1` displayed a melting point of 91 to 93 °C.

In the case of `O=c1[nH]sc2ccccc12`, the melting point is 156 °C.

Consider `C#CC[C@H](NC(=O)OC(C)(C)C)C(=O)O`, for which the melting point came to 85.5 °C.

As for `Cc1cc(C)c(S(=O)(=O)n2cnc([N+](=O)[O-])n2)c(C)c1`, the melting point fell in the range of 132 to 134 °C.

For the compound `CC(=O)c1ccc(NC(N)=S)cc1`, the melting point came out at 215 °C.

As to `C=CCCCCCCCCC`, the melting point is -49.2 °C.

For the origin of these results see a melting point compilation (Tetko et al.).
